Assays:
[1] = test system: KRAS G12C mutant NCI-H358 cells; assay: Cell proliferation inhibition experiment, 3D spheroid, CellTiter-Glo, NCI-H358; format: cell-based, human; conditions: Homo sapiens, NCI-H358, 120 h, NCI-H358 (KRAS G12C mutant) 3D spheroid, 5 days with compound, CellTiter-Glo; read-out: H358 IC50
Method in brief: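 First, H358 (800/well) or A549 (400/well) cells are plated in 2% FBS medium and left overnight to form spheroids. Next, compound is added as a 3.16-fold gradient at 0.1% DMSO for 5 days. Finally, CellTiter-Glo signal is read and IC50 derived by four-parameter fitting.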

[2] = test system: phosphorylated ERK downstream of KRAS G12C in MIA PaCa2 cells; assay: Cell p-ERK detection experiment (HTRF) in MIA PaCa2; format: cell-based, human; conditions: Homo sapiens, MIA PaCa-2, 2 h, MIA PaCa2 cells, 2 hours with compound, Advance ERK phospho-T202/Y204 HTRF kit; read-out: p-ERK IC50
Source text: Raw materials and instruments: MIA PaCa-2 purchased from ATCC; article number: CRL-1420; batch number: 63143594; DMEM purchased from Gibco; article number: 11995-065; batch number: 2186878; FBS purchased from Gibco; article number: 10099-141; batch number: 2109290CP; Horse serum purchased from Gibco; article number: 16050-122; batch number: 1818976; Trypsin-EDTA purchased from Gibco; article number: 25200-072; batch number: 2085552; PS purchased from Gibco; article number: 15140-122; batch number: 2145451; DMSO purchased from VWR AMRESCO; article number: 0231-500ML; batch number: 0457C072; 96-well cell culture plate purchased from Corning; article number: 3599; batch number: 22718601; white opaque 96-well plate purchased from Cisbio; article number: 66PL96025; batch number: N°05; Advance ERK phospho-T202/Y204 kit purchased from Cisbio; article number: 64AERPEH; batch number: 11D; microplate reader purchased from PerkinElmer; model: Envision MLD2105-0020; equipment number 1050369.
MIA PaCa2 was a KRAS G12C mutant human pancreatic cancer cell line cultured in 10% FBS+2.5% Horse serum DMEM culture medium. Cells at logarithmic growth stage were taken, digested with trypsin-EDTA, then collected and counted, and 2.5E4 cells were inoculated in a 96-well cell culture plate and cultured overnight. A 3.16-fold gradient concentration stock solution of 1000× compound was prepared with DMSO, and diluted 200-fold to 5× compound stock solution with culture medium. On the second day after cell inoculation, 5× compound stock solution was added to each cell culture well, with a final concentration of 1× and a DMSO content of 0.1%. DMSO was used as experimental control (control). After the compound was added and cultured for two hours, the residual culture medium was removed. 50 μL of cell lysate (from Advance ERK phospho-T202/Y204 kit, the same below) was added to each well, mixed well and incubated for 30 minutes, and then 16 μL of the mixed solution was transferred to a white opaque 96-well plate, and 16 μL of cell lysate was added to the blank wells. After the transfer was completed, 4 μL of p-ERK HTRF antibody (from Advance ERK phospho-T202/Y204 kit) mixture was added to each well, incubated for 4 hours, and the fluorescence value was read with the microplate reader. The inhibition rate of the compound IR (%)=(RLU control -RLU compound)/(RLU control-RLU blank)×100% was calculated. The gradient dilution concentration of the compound and the corresponding cell proliferation inhibition rate were fitted by Prism 8 four-parameter method, and the IC50 value was calculated. The compounds prepared in the above embodiments of the present disclosure have inhibitory activity of 0.0001 μM to 1 μM on the phosphorylated ERK level downstream of the cell channel of KRAS G12C protein mutant; some compounds have inhibitory activity of 0.001 μM to 1 μM or 0.001 μM to 0.5 μM on phosphorylated ERK level downstream of cell channel of KRAS G12C protein mutant.

| Compound | IC50 [1] [nM] | IC50 [2] [nM] |
| --- | --- | --- |
| C=CC(=O)N1CCN2C(=O)c3c(N4CC[C@@H]5C[C@@H]54)nc(-c4c(O)cccc4F)c(Cl)c3OC[C@H]2C1 (single isomer, unassigned) [Z39-2] | 7.8 | 88 |
| C=CC(=O)N1CCN2C(=O)c3c(N4C[C@@H](CO)CC4(C)C)nc(-c4c(O)cccc4F)c(Cl)c3OC[C@H]2C1 (single isomer, unassigned) [Z240-1] | 2.5 | 19 |
| C=CC(=O)N1CCN2C(=O)c3c(N4C[C@H](O)CC4(C)C)nc(-c4c(O)ccc(Cl)c4F)c(F)c3OC[C@H]2C1 (single isomer, unassigned) [Z340-2] | 26.7 |  |
| C=CC(=O)N1CCN2C(=O)c3c(N4CCN(C)C[C@@H]4C)nc(-c4nc(N)cc(C)c4C(F)(F)F)c(Cl)c3OC[C@H]2C1 [Z328-1, (R)-8-acryloyl-3-(6-amino-4-methyl-3-(trifluoromethyl)pyridin-2-yl)-4-chloro-1-((S)-2,4-dimethylpiperazin-1-yl)-6,6a,7,8,9,10-hexahydro-12H-pyrazino[2,1-c]pyrido[3,4-f][1,4]oxazepin-12-one] | 2.2 | 15 |
| C=CC(=O)N1CCN2C(=O)c3c(N4C[C@@H](N(C)C)CC4(C)C)nc(-c4c(O)cccc4F)c(Cl)c3OC[C@H]2C1 (single isomer, unassigned) [Z324-1] | 1.3 | 15 |
| C=CC(=O)N1CCN2C(=O)c3c(N4CCN(C5COC5)C[C@@H]4C)nc(-c4c(O)cccc4F)c(Cl)c3OC[C@H]2C1 (single isomer, unassigned) [Z239-1] | 15 |  |
| C=CC(=O)N1CCN2C(=O)c3c(N4C[C@H](N(C)C)C[C@@H]4C)nc(-c4c(O)cccc4F)c(Cl)c3OC[C@H]2C1 [Z237-1, (6aR)-8-acryloyl-4-chloro-1-((2S,4R)-4-(dimethylamino)-2-methylpyrrolidin-1-yl)-3-(2-fluoro-6-hydroxyphenyl)-6,6a,7,8,9,10-hexahydro-12H-pyrazino[2,1-c]pyrido[3,4-f][1,4]oxazepin-12-one] | 14.6 | 30 |
| C=CC(=O)N1CCN2C(=O)c3c(N4CCC[C@@]4(C)CO)nc(-c4c(O)cccc4F)c(Cl)c3OC[C@H]2C1 [Z279-2] | 3.8 | 35 |
| C=CC(=O)N1CCN2C(=O)c3c(N4CC(C)(C)OC[C@@H]4C)nc(-c4c(O)cccc4F)c(Cl)c3OC[C@H]2C1 [Z276-1, (6aR)-8-acryloyl-4-chloro-3-(2-fluoro-6-hydroxyphenyl)-1-((S)-2,2,5-trimethylmorpholino)-6,6a,7,8,9,10-hexahydro-12H-pyrazino[2,1-c]pyrido[3,4-f][1,4]oxazepin-12-one] | 7.6 | 83 |
| C=CC(=O)N1CCN2C(=O)c3c(N4C[C@@](C)(O)CC4(C)C)nc(-c4c(O)cccc4F)c(F)c3OC[C@H]2C1 (single isomer, unassigned) [Z256b-1] | 2.8 | 43 |
| C=CC(=O)N1CCN2C(=O)c3c(N4C[C@](C)(O)CC4(C)C)nc(-c4c(O)cccc4F)c(Cl)c3OC[C@H]2C1 (single isomer, unassigned) [Z243-2] | 11.1 | 108 |
| C=CC(=O)N1CCN2C(=O)c3c(N4Cc5cn(C)nc5C4C)nc(-c4c(O)cccc4F)c(Cl)c3OC[C@H]2C1 (stereo partly shown) [Z291-2] | 3.5 | 24 |
| C=CC(=O)N1CCN2C(=O)c3c(N4CC[C@@H](OC)C4(C)C)nc(-c4c(O)cccc4F)c(F)c3OC[C@H]2C1 (single isomer, unassigned) [Z327-1] | 4 | 66 |
| C=CC(=O)N1CCN2C(=O)c3c(N4CCN(C(C)=O)C[C@@H]4C)nc(-c4c(O)cccc4F)c(Cl)c3OC[C@H]2C1 [Z313-1] | 1.6 | 23 |
| C=CC(=O)N1CCN2C(=O)c3c(N4CC(N(C)CCOC)CC4(C)C)nc(-c4c(O)cccc4F)c(Cl)c3OCC2C1 (single isomer, unassigned) [Z296-1] | 0.4 | 8 |
| C=CC(=O)N1CCN2C(=O)c3c(N4C[C@H](O)CC4(C)C)nc(-c4ccccc4F)c(Cl)c3OC[C@H]2C1 (single isomer, unassigned) [Z325-2] | 6.1 | 61 |
| C=CC(=O)N1CCN2C(=O)c3c(N4CC[C@@H](OC)C4(C)C)nc(-c4c(O)cccc4F)c(Cl)c3OC[C@H]2C1 (single isomer, unassigned) [Z241a-2] | 0.7 | 9 |
| C=CC(=O)N1CCN2C(=O)c3c(N4C[C@H](CO)CC4(C)C)nc(-c4c(O)cccc4F)c(Cl)c3OC[C@H]2C1 (single isomer, unassigned) [Z240-2] | 1.9 | 20 |
| C=CC(=O)N1CCN2C(=O)c3c(N4CCO[C@](C)(CO)C4)nc(-c4c(O)cccc4F)c(Cl)c3OC[C@H]2C1 (single isomer, unassigned) [Z333-1] | 26 |  |

Next, values leading:

| IC50 [1] [nM] | IC50 [2] [nM] | Compound |
| --- | --- | --- |
| 2.6 | 22 | C=CC(=O)N1CCN2C(=O)c3c(N4CCC(O)C4(C)C)nc(-c4c(O)cccc4F)c(Cl)c3OC[C@H]2C1 (stereo partly drawn) [Z241, (6aR)-8-acryloyl-1-(3-hydroxy-2,2-dimethylpyrrolidin-1-yl)-4-chloro-3-(2-fluoro-6-hydroxyphenyl)-6,6a,7,8,9,10-hexahydro-12H-pyrazino[2,1-c]pyrido[3,4-f][1,4]oxazepin-12-one] |
| 6 | 62 | C=CC(=O)N1CCN2C(=O)c3c(N4CCOCC4)nc(-c4nc(N)cc(C)c4C(F)(F)F)c(Cl)c3OC[C@H]2C1 [Z314] |
| 4 | 86 | C=CC(=O)N1CCN2C(=O)c3c(N(C)c4c(C(C)C)ncnc4C(C)C)nc(-c4c(O)cccc4F)c(Cl)c3OC[C@H]2C1 [Z20, (6aR)-8-acryloyl-4-chloro-1-((4,6-diisopropylpyrimidin-5-yl)(methyl)amino)-3-(2-fluoro-6-hydroxyphenyl)-6,6a,7,8,9,10-hexahydro-12H-pyrazino[2,1-c]pyrido[3,4-f][1,4]oxazepin-12-one] |
| 20 | 253 | C=CC(=O)N1CCN2C(=O)c3c(N4CCN(C)C[C@@H]4C)nc(-c4c(F)ccc(F)c4O)c(Cl)c3OC[C@H]2C1 [Z356, (6aR)-8-acryloyl-4-chloro-3-(3,6-difluoro-2-hydroxyphenyl)-1-((S)-2,4-dimethylpiperazin-1-yl)-6,6a,7,8,9,10-hexahydro-12H-pyrazino[2,1-c]pyrido[3,4-f][1,4]oxazepin-12-one] |
| 9 | 62 | C=CC(=O)N1CCN2C(=O)c3c(N4CCC(N(C)C)C4(C)C)nc(-c4c(O)cccc4F)c(Cl)c3OC[C@H]2C1 (stereo partly drawn) [Z334, (6aR)-8-acryloyl-4-chloro-1-(3-(dimethylamino)-2,2-dimethylpyrrolidin-1-yl)-3-(2-fluoro-6-hydroxyphenyl)-6,6a,7,8,9,10-hexahydro-12H-pyrazino[2,1-c]pyrido[3,4-f][1,4]oxazepin-12-one] |
| 4 | 26 | C=CC(=O)N1CCN2C(=O)c3c(N4CCN(CCOC)C[C@@H]4C)nc(-c4c(O)cccc4F)c(Cl)c3OC[C@H]2C1 [Z257a, (6aR)-8-acryloyl-4-chloro-3-(2-fluoro-6-hydroxyphenyl)-1-((S)-4-(2-methoxyethyl)-2-methylpiperazin-1-yl)-6,6a,7,8,9,10-hexahydro-12H-pyrazino[2,1-c]pyrido[3,4-f][1,4]oxazepin-12-one] |
| 1.3 | 10 | C=CC(=O)N1CCN2C(=O)c3c(N4CC(N5CCOCC5)CC4(C)C)nc(-c4c(O)cccc4F)c(Cl)c3OC[C@H]2C1 (stereo partly drawn) [Z344, (6aR)-8-acryloyl-4-chloro-1-((2,2-dimethyl-4-morpholinopyrrolidin-1-yl))-3-(2-fluoro-6-hydroxyphenyl)-6,6a,7,8,9,10-hexahydro-12H-pyrazino[2,1-c]pyrido[3,4-f][1,4]oxazepin-12-one] |

Reference: patent publication US20230203060A1 (GENFLEET THERAPEUTICS (SHANGHAI) INC., priority 2020, published 2023)
